Results: patent publication US10322125B2, “TGF-beta enhancing compositions for cartilage repair and methods related thereto” (EMORY UNIVERSITY, priority 2013, dated 2019)

Tested on: 3TP-Lux luciferase reporter (TGF-β-responsive region of the PAI-1 gene) in C2C12 cells
Assay: C2C12 cell-based Dual-Luciferase reporter screening assay for TGF-β activity (3TP-Lux)
Parameters: species or system mouse
Conditions: FIG. 6
Method: The C2C12 cells, a mouse myoblast cell line, were obtained from the American Type Culture Collection (ATCC, Manassas, 8 VA). Cells were grown in Dulbecco's modified Eagle medium (DMEM, Gibco Life Technologies, Rockville, Md.) with 10% non heat inactivated fetal bovine serum (Atlanta Biologicals, Norcross, Ga.). The C2C12 cells at passages 4 to 7 were subcultured in T-75 cm2 flasks at 37° C. in a humidified atmosphere containing 5% CO2. When the flasks reached 80% confluence, the cells were trypsinized and seeded in triplicate at 50,000 cells/well in a 12-well plate for the Dual-Luciferase reporter assay.
The C2C12 cells were seeded at a 50,000 cell/well in 12-well plates on day 1. […]
For each well, a total of 1 μg DNA was used for the cotransfection and concentration of pGL4.74 Renilla luciferase vector was 1/15 of 3TP-Lux reporter plasmid. […] On day 5, the luciferase activity was measured using the luciferase assay kit (Promega, Madison, Wis.) according to the manufacturer's instructions on a luminescence reader (VictorTMX Light, PerkinElmer Life and Analytical Sciences, Waltham, Mass.). […]

With “TGF-β: Transforming growth factor beta, a secreted protein; cells were treated with TGF-β1 in the reporter assay” the “reporter response at higher TGF-β doses” value (doses ranging from 10 ng/ml to 100 ng/ml of TGF-β, compared with 5 ng/ml dose, DMSO instead of compounds) was “did not increase reporter response beyond 5 ng/ml dose” and the “TGF-β dose at which maximum reporter response was reached” value (luciferase reporter assay, DMSO solvent instead of compounds) was 5 ng/mL.
